US4948791A, “Novel Cytotoxic cyclic depsipeptides from the tunicate trididemnum solidum” (priority 1989, dated 1990)
Values after ≈ are worked out from the molar mass of the structure shown. Numbered stars: 1 amine (or outer) side, 2 acyl side, 3 side chain; on linkers, the order of the positions; unused ones are H or OH. Bridge positions count the residues as written; N and C are the ends. Square brackets hold non-standard residues; d marks the D form. Peptide text beside a SMILES is read from it. X1 = CC[C@H](C)[C@@H](N[*:1])[C@@H](O)CC(=O)O[C@H](C(=O)[C@H](C)C(=O)[*:2])C(C)C; NMeY = CN[C@@H](Cc1ccc(O)cc1)C(=O)O; dNMeL = CN[C@H](CC(C)C)C(=O)O

Tested on: L1210 mouse leukemia cells
Assay: Three-day L1210 cell growth inhibition assay (at 37° C.)
Type: cell-based
Conditions: for growth of L1210 mouse leukemia cells in vitro: statement in words
Protocol: Three-day L1210 cell growth inhibition assay (at 37° C.)

[1] = three-day L1210 cell growth inhibition assay
[2] = three-day L1210 cell growth inhibition, 37° C., first ID50/ID90 column pair of Table 1
[3] = three-day L1210 cell growth inhibition, 37° C., second ID50/ID90 column pair of Table 1

“3-hydroxydecanoyl-L-Gln-L-Gln-L-Gln-L-Gln-didemnin B [Didemnin Y]” was tested, and the “growth of L1210 mouse leukemia cells in vitro” value was “inhibit the growth”, the ID50 [1] was 6.4 ng/mL and the ID50 [2] was 6.4 ng/mL. The ID90 [2] was 21 ng/mL, the ID50 [3] was 4.8 ng/mL and the ID90 [3] was 20 ng/mL.

Work on `CC[C@H](C)[C@H]1NC(=O)[C@@H](NC(=O)[C@@H](CC(C)C)NC)[C@@H](C)OC(=O)[C@H](Cc2ccc(OC)cc2)N(C)C(=O)[C@@H]2CCCN2C(=O)[C@H](CC(C)C)NC(=O)[C@@H](C)C(=O)[C@H](C(C)C)OC(=O)C[C@@H]1O` [Didemnin A, didemnin A] (H-[dNMeL]T[X1]LP[NMeY](Me); ester 2-C) yielded an ID50 [2] of 7.8 ng/mL (≈ 0.00827 µM) and an ID90 [2] of 58 ng/mL (≈ 0.0615 µM).

Compound `CC[C@H](C)[C@H]1NC(=O)[C@@H](NC(=O)[C@@H](CC(C)C)N(C)C(=O)[C@@H]2CCCN2C(=O)C(C)O)[C@@H](C)OC(=O)[C@H](Cc2ccc(OC)cc2)N(C)C(=O)[C@@H]2CCCN2C(=O)[C@H](CC(C)C)NC(=O)[C@@H](C)C(=O)[C@H](C(C)C)OC(=O)C[C@@H]1O` (stereo partly drawn) [Didemnin B, didemnin B] has an ID50 [3] of 3.8 ng/mL (≈ 0.00342 µM) and an ID90 [3] of 15 ng/mL (≈ 0.0135 µM).

“(R)-3-hydroxydecanoyl-L-Gln-L-Gln-L-Gln-didemnin B [Didemnin X]” was tested, and the “growth of L1210 mouse leukemia cells in vitro” value was “inhibit the growth”, the ID50 [1] was 4 ng/mL and the ID50 [2] was 4 ng/mL. The ID90 [2] was 17 ng/mL, the ID50 [3] was 4.8 ng/mL and the ID90 [3] was 17 ng/mL.

In the case of didemnin D, the ID50 [2] was 3.4 ng/mL, the ID90 [2] was 15 ng/mL and the ID50 [3] was 4.2 ng/mL. For the same compound, the ID90 [3] was 16 ng/mL.

didemnin E showed an ID50 [2] of 1.1 ng/mL, an ID90 [2] of 7.6 ng/mL and an ID50 [3] of 0.8 ng/mL. For the same compound, the ID90 [3] was 5.6 ng/mL.
